From patent US8007800B2, “Methods for treating bone cancer pain by administering a nerve growth factor antagonist antibody” (Pfizer Inc., priority 2004, dated 2011)

Experiments:
[1] = target: human NGF (Homo sapiens, UniProt P01138); experiment: Binding affinity of Fab fragments to NGF (BIAcore surface plasmon resonance); settings: measured using Fab fragments
Protocol: The binding affinity of an anti-NGF antibody to NGF (such as hNGF) can be about 0.10 to about 1.0 nM, about 0.10 nM to about 0.80 nM, about 0.15 to about 0.75 nM and about 0.18 to about 0.72 nM. […] In some embodiment, the binding affinity is about 10 nM. In other embodiments, the binding affinity is less than about 10 nM. […] As is well known in the art, binding affinity can be expressed as KD, or dissociation constant, and an increased binding affinity corresponds to a decreased KD.
One way of determining binding affinity of antibodies to NGF is by measuring binding affinity of monofunctional Fab fragments of the antibody. To obtain monofunctional Fab fragments, an antibody (for example, IgG) can be cleaved with papain or expressed recombinantly. The affinity of an anti-NGF Fab fragment of an antibody can be determined by surface plasmon resonance (BIAcore3000™ surface plasmon resonance (SPR) system, BIAcore, INC, Piscaway N.J.). CM5 chips can be activated with N-ethyl-N′-(3-dimethylaminopropyl)-carbodiinide hydrochloride (EDC) and N-hydroxysuccinimide (NHS) according to the supplier's instructions. […] The concentrations of the Fab proteins are determined by ELISA and/or SDS-PAGE electrophoresis using a Fab of known concentration (as determined by amino acid analysis) as a standard. […] Equilibrium dissociation constant (KD) values are calculated as koff/kon. […]

[2] = test system: C3H/HeJ mice injected with NCTC 2472 osteolytic murine sarcoma cells into the femur; experiment: Example 2: murine sarcoma bone cancer pain model, ongoing and palpation-evoked pain behaviors; format: in vivo, mouse; settings: days 10 and 14, vs sarcoma+vehicle

human NGF, sequence (P01138 122-241): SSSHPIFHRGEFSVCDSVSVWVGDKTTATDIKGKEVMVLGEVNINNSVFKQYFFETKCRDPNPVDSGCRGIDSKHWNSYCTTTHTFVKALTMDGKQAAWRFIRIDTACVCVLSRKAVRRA

## antibody E3: humanized mouse anti-NGF monoclonal antibody; human IgG2a constant region A330P331 to S330S331, kappa light chain, variable regions SEQ ID NO:1 and 2
[1]
  Kd: ~0.07 nM

## CN1CC[C@]23c4c5ccc(O)c4O[C@H]2[C@@H](O)C=C[C@H]3[C@H]1C5.O=S(=O)(O)O [morphine sulfate]
[2]; morphine sulfate 10 mg/kg i.p. 15 min prior to testing
  ongoing and movement-evoked guarding behaviors: significantly reduced
[2]; morphine sulfate 30 mg/kg i.p. 15 min prior to testing
  ongoing and movement-evoked guarding behaviors: significantly reduced
